Assay results from patent US12064426B2, “Selective inhibitors of ROCK1 and ROCK2 protein kinases and uses thereof” (GENOSCO Inc., priority 2021, dated 2024).

Key:
[1] = biological target: T1, Recombinant ROCK1 (amino acids 1-477) (Homo sapiens, UniProt Q13464); assay: ROCK inhibition assay, LANCE Ultra TR-FRET kinase assay (ROCK1); format: biochemical; settings: 1 μM ATP, 50 nM ULight-CREBtide substrate
T1 construct: Recombinant ROCK1 (amino acids 1-477); by word order, ROCK1 from Carna Biosciences
T1 sequence (Q13464 1-477): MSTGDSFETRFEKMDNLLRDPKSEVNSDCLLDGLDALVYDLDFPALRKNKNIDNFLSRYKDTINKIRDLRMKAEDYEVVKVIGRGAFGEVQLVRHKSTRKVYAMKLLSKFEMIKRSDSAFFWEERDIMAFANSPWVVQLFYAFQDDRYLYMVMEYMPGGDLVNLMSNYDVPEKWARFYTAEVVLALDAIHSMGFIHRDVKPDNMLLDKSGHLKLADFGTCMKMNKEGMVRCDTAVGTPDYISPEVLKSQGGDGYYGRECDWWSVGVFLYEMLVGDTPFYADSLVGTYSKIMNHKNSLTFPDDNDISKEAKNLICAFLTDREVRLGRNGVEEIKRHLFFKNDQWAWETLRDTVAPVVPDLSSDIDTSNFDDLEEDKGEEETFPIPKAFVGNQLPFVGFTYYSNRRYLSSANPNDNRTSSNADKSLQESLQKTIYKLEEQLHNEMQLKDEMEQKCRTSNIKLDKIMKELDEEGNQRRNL
In short: (§1)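 Reaction buffer 50 mM HEPES pH 7.5, 10 mM MgCl2, 1 mM EGTA, 2 mM DTT; kinase, ULight-CREBtide (50 nM) and ATP (ROCK1 1 μM, ROCK2 4 μM) react 1 h at room temperature. Phospho-Ser133 detected by europium antibody after 10 mM EDTA stop, TR-FRET ex 320 nm; IC50 calculated.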

[2] = biological target: T2, Recombinant ROCK2 (amino acids 5-554) (Homo sapiens, UniProt O75116); assay: ROCK inhibition assay, LANCE Ultra TR-FRET kinase assay (ROCK2); format: biochemical; settings: 4 μM ATP, 50 nM ULight-CREBtide substrate
T2 construct: ROCK2 (amino acids 5-554); by word order, ROCK2 from SignalChem
T2 sequence (O75116 5-554): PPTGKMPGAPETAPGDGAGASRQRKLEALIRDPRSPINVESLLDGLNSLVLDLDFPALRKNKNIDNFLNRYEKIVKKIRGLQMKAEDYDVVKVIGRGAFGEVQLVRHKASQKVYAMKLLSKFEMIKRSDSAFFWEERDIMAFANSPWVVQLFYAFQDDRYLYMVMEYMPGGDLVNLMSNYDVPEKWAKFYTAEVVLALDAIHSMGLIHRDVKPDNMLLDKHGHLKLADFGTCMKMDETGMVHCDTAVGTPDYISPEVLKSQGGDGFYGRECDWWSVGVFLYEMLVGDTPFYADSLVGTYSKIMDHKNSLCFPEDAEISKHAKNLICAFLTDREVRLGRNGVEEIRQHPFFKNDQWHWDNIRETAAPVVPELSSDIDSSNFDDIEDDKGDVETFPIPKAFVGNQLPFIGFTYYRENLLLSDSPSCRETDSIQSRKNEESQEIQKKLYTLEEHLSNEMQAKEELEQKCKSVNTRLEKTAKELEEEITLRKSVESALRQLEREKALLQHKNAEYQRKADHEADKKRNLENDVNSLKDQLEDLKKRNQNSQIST
In short: as §1

## Cn1nccc1-c1cc2ccn(Cc3cc(F)cc(C(=O)NCCc4cccnc4)c3)c(=O)c2cn1 [Compound 271]
[1]
  IC50: < 10 nM
[2]
  IC50: < 10 nM

## O=C(NCc1ccc(F)nc1)c1cc(F)cc(Cn2ccc3cc(-c4c[nH]nc4C(F)(F)F)ccc3c2=O)c1 [Compound 129]
[1]
  IC50: 101 to 500 nM
[2]
  IC50: < 10 nM

## CNC(=O)c1cccc(Cn2cc(C(C)O)c3cc(-c4ccnc(N)c4)ccc3c2=O)c1 (stereo not drawn) [Compound 545]
[1]
  IC50: 11 to 100 nM
[2]
  IC50: < 10 nM

## CNC(=O)c1cccc([C@@H](C)n2cnc3cc(-c4ccnn4C)ccc3c2=O)c1 [Compound 476]
[1]
  IC50: 11 to 100 nM
[2]
  IC50: < 10 nM

## CNC(=O)c1cccc(Cn2ccc3cc(-c4cn[nH]c4Br)ccc3c2=O)c1 [Compound 512]
[1]
  IC50: 11 to 100 nM
[2]
  IC50: < 10 nM

## CN1CCC(CNC(=O)c2cc(F)cc(Cn3ccc4cc(-c5c[nH]nc5C(F)(F)F)ncc4c3=O)c2)CC1 [Compound 257]
[1]
  IC50: < 10 nM
[2]
  IC50: < 10 nM

## Nc1cc(-c2ccc3c(=O)n(Cc4cccc(C(=O)Nc5ccc6c(c5)CCOC6)c4)ccc3c2)ccn1 [Compound 196]
[1]
  IC50: 101 to 500 nM
[2]
  IC50: 10 to 100 nM

## CNC(=O)c1cccc(C(C)n2cnc3cc(-c4ccnn4C)ccc3c2=O)c1 (stereo not drawn) [Compound 426]
[1]
  IC50: 11 to 100 nM
[2]
  IC50: < 10 nM

## CC(O)c1cn(Cc2cccc(C(=O)NC3COC3)c2)c(=O)c2ccc(-c3c[nH]nc3C(F)(F)F)cc12 (stereo not drawn) [Compound 534]
[1]
  IC50: 11 to 100 nM
[2]
  IC50: < 10 nM

## CC(C)C(=O)Nc1cccc(Cn2ccc3cc(-c4c[nH]nc4C(F)(F)F)ccc3c2=O)c1 [Compound 338]
[1]
  IC50: 11 to 100 nM
[2]
  IC50: 10 to 100 nM

## N#Cc1cccc(C(CN)n2cnc3cc(-c4ccnc(F)c4)ccc3c2=O)c1 (stereo not drawn) [Compound 502, 3-(2-amino-1-(7-(2-fluoropyridin-4-yl)-4-oxoquinazolin-3(4H)-yl)ethyl)benzonitrile]
[1]
  IC50: > 501 nM
[2]
  IC50: 100 to 500 nM

## Nc1cc(-c2ccc3c(=O)n(Cc4cccc(C(=O)NCc5ccc6ccccc6c5)c4)ccc3c2)ccn1 [Compound 182]
[1]
  IC50: > 501 nM
[2]
  IC50: 100 to 500 nM

## Nc1cc(-c2ccc3c(=O)n(Cc4cccc(C(=O)NC5CCOCC5)c4)cnc3c2)ccn1 [Compound 435]
[1]
  IC50: 101 to 500 nM
[2]
  IC50: 10 to 100 nM

## O=C(NCC1CCOCC1)c1cccc(Cn2ccc3cc(-c4c[nH]nc4C(F)(F)F)ccc3c2=O)c1 [Compound 52]
[1]
  IC50: 11 to 100 nM
[2]
  IC50: < 10 nM

## Cc1nocc1-c1ccc2c(=O)n(Cc3cccc(C(=O)N[C@H]4CC[C@@H](O)CC4)c3)ccc2c1 [Compound 74]
[1]
  IC50: 101 to 500 nM
[2]
  IC50: 10 to 100 nM

## CN1CCC(CNC(=O)c2cc(F)cc(Cn3ccc4cc(-c5c[nH]nc5Br)ncc4c3=O)c2)CC1 [Compound 273]
[1]
  IC50: < 10 nM
[2]
  IC50: < 10 nM

## Cc1nocc1-c1cc2ccn(Cc3cc(F)cc(C(=O)NCC4CCOCC4)c3)c(=O)c2cn1 [Compound 266]
[1]
  IC50: 11 to 100 nM
[2]
  IC50: < 10 nM

## COc1cccc(CN2CCc3cc(-c4cn[nH]c4)ccc3C2=O)c1 [Compound 1, 2-(3-methoxybenzyl)-6-(1H-pyrazol-4-yl)-3,4-dihydroisoquinolin-1(2H)-one]
[1]
  IC50: > 501 nM
[2]
  IC50: 100 to 500 nM

## C[C@H](c1cccc(C(=O)NCC2COC2)c1)n1cnc2cc(-c3cn[nH]c3C(F)(F)F)ccc2c1=O [Compound 452]
[1]
  IC50: 11 to 100 nM
[2]
  IC50: < 10 nM

## [2H]C([2H])([2H])NC(=O)c1cccc(Cn2ccc3cc(-c4conc4C)ccc3c2=O)c1 [Compound 307]
[1]
  IC50: 11 to 100 nM
[2]
  IC50: < 10 nM

## CNC(=O)c1cc(F)cc(Cn2cc(Cl)c3cc(-c4conc4C)ccc3c2=O)c1 [Compound 318]
[1]
  IC50: 11 to 100 nM
[2]
  IC50: < 10 nM

## COc1cccc(C(CN)n2cnc3cc(-c4cn[nH]c4C(F)(F)F)ccc3c2=O)c1 (stereo not drawn) [Compound 499]
[1]
  IC50: < 10 nM
[2]
  IC50: < 10 nM

## Cn1ccc(NC(=O)c2cccc(Cn3cnc4cc(-c5cn[nH]c5C(F)(F)F)ccc4c3=O)c2)n1 [Compound 374]
[1]
  IC50: 11 to 100 nM
[2]
  IC50: < 10 nM

## O=C(NCC1CCOCC1)c1cccc(Cn2ccc3cc(-c4c[nH]nc4C(F)F)ccc3c2=O)c1 [Compound 55]
[1]
  IC50: 11 to 100 nM
[2]
  IC50: < 10 nM

## CNC(=O)c1cccc(Cn2ccc3cc(-c4conc4C)cnc3c2=O)c1 [Compound 243]
[1]
  IC50: > 501 nM
[2]
  IC50: 100 to 500 nM

## Cn1nccc1-c1ccc2c(=O)n(Cc3cc(F)cc(C(=O)N[C@H]4CC[C@H](O)CC4)c3)ccc2c1 [Compound 164]
[1]
  IC50: 101 to 500 nM
[2]
  IC50: 10 to 100 nM

## O=C(NC1CC1)c1cc(F)cc(Cn2ccc3cc(-c4c[nH]nc4C(F)(F)F)ccc3c2=O)c1 [Compound 133]
[1]
  IC50: 101 to 500 nM
[2]
  IC50: 10 to 100 nM

## CNC(=O)c1cccc(Cn2ccc3cc(-c4ccnn4C)ncc3c2=O)c1 [Compound 240]
[1]
  IC50: 101 to 500 nM
[2]
  IC50: 10 to 100 nM

## CNC(=O)c1cccc(C(C)n2ccc3cc(-c4conc4C)ccc3c2=O)c1 (stereo not drawn) [Compound 309]
[1]
  IC50: 11 to 100 nM
[2]
  IC50: < 10 nM

## Cc1nocc1-c1ccc2c(=O)n(Cc3cccc(C(=O)N[C@H]4C[C@H](O)C4)c3)ccc2c1 [Compound 73]
[1]
  IC50: 101 to 500 nM
[2]
  IC50: 10 to 100 nM

## O=C(NCCc1ccncc1)c1cccc(Cn2cnc3cc(-c4cn[nH]c4C(F)(F)F)ccc3c2=O)c1 [Compound 370]
[1]
  IC50: < 10 nM
[2]
  IC50: < 10 nM

## Cc1nocc1-c1ccc2c(=O)n(Cc3cccc(C(=O)NCCN4CCOCC4)c3)ccc2c1 [Compound 69]
[1]
  IC50: 101 to 500 nM
[2]
  IC50: 10 to 100 nM

## CNC(=O)c1cccc([C@@H](C)n2cnc3cc(-c4cn[nH]c4Cl)ncc3c2=O)c1 [Compound 569]
[1]
  IC50: < 10 nM
[2]
  IC50: < 10 nM

## Cc1nocc1-c1ccc2c(=O)n(Cc3cccc(C(=O)NCC(F)(F)F)c3)cnc2c1 [Compound 421]
[1]
  IC50: 11 to 100 nM
[2]
  IC50: < 10 nM

## Cn1ccc(NC(=O)c2cc(F)cc(Cn3ccc4cc(-c5cn[nH]c5C(F)(F)F)ccc4c3=O)c2)n1 [Compound 128]
[1]
  IC50: 11 to 100 nM
[2]
  IC50: < 10 nM

## Cc1nocc1-c1ccc2c(=O)n(Cc3cc(F)cc(C(=O)NCC4CCN(C(C)C)CC4)c3)ccc2c1 [Compound 152]
[1]
  IC50: 101 to 500 nM
[2]
  IC50: 10 to 100 nM

## CNC(=O)c1cccc(Cn2cc(C(C)O)c3cc(-c4c[nH]nc4C(F)(F)F)ccc3c2=O)c1 (stereo not drawn) [Compound 532, 3-((4-(1-hydroxyethyl)-1-oxo-6-(3-(trifluoromethyl)-1H-pyrazol-4-yl)isoquinolin-2(1H)-yl)methyl)-N-methylbenzamide]
[1]
  IC50: < 10 nM
[2]
  IC50: < 10 nM

## Nc1cc(-c2ccc3c(=O)n(Cc4cccc(C(=O)NC5COC5)c4)cnc3c2)ccn1 [Compound 434]
[1]
  IC50: 101 to 500 nM
[2]
  IC50: 10 to 100 nM

## Cc1nocc1-c1ccc2c(=O)n(Cc3cc(F)cc(C(=O)N[C@H]4CC[C@@H](O)CC4)c3)ccc2c1 [Compound 140]
[1]
  IC50: 101 to 500 nM
[2]
  IC50: 100 to 500 nM

## CNC(=O)c1cccc([C@@H](C)n2cnc3cc(-c4cn[nH]c4Br)ccc3c2=O)c1 [Compound 509, (R)-3-(1-(7-(5-bromo-1H-pyrazol-4-yl)-4-oxoquinazolin-3(4H)-yl)ethyl)-N-methylbenzamide]
[1]
  IC50: 11 to 100 nM
[2]
  IC50: < 10 nM

## CNC(=O)c1cccc(Cn2cnc3cc(-c4cn[nH]c4C(F)(F)F)ccc3c2=O)c1 [Compound 367]
[1]
  IC50: 11 to 100 nM
[2]
  IC50: < 10 nM

## CNC(=O)c1cc(F)cc(Cn2ccc3cc(-c4cn[nH]c4C(F)(F)F)ncc3c2=O)c1 [Compound 246]
[1]
  IC50: 11 to 100 nM
[2]
  IC50: < 10 nM

## [2H]C([2H])([2H])NC(=O)c1cc(F)cc(Cn2cnc3cc(-c4cn[nH]c4C(F)(F)F)ccc3c2=O)c1 [Compound 387]
[1]
  IC50: 11 to 100 nM
[2]
  IC50: < 10 nM

## C[C@H](c1cccc(C(=O)NC2CC2)c1)n1cnc2cc(-c3cn[nH]c3N)ccc2c1=O [Compound 521]
[1]
  IC50: 11 to 100 nM
[2]
  IC50: < 10 nM

## O=C(NCC1CCN(CC(F)(F)F)CC1)c1cc(F)cc(Cn2ccc3cc(N4CCOCC4)ccc3c2=O)c1 [Compound 221]
[1]
  IC50: 101 to 500 nM
[2]
  IC50: 10 to 100 nM

## O=C(Nc1ccccc1)c1cccc(Cn2ccc3cc(-c4cn[nH]c4)ccc3c2=O)c1 [Compound 29]
[1]
  IC50: > 501 nM
[2]
  IC50: 100 to 500 nM

## CNC(=O)c1cccc(C(C)n2cc(CCO)c3cc(-c4conc4C)ccc3c2=O)c1 (stereo not drawn) [Compound 553]
[1]
  IC50: 101 to 500 nM
[2]
  IC50: 10 to 100 nM

## O=C1c2ccc(-c3cn[nH]c3C(F)(F)F)cc2NCN1[C@H](CO)c1cccc(Cl)c1 [Compound 524]
[1]
  IC50: > 501 nM
[2]
  IC50: 100 to 500 nM

## Cc1nocc1-c1ccc2c(=O)n(Cc3cccc(C(=O)Nc4nc5c(s4)CCNC5)c3)ccc2c1 [Compound 93]
[1]
  IC50: < 10 nM
[2]
  IC50: < 10 nM

## CNC(=O)c1cccc([C@@H](C)n2cnc3cc(-c4cn[nH]c4C(F)F)ccc3c2=O)c1 [Compound 457]
[1]
  IC50: 11 to 100 nM
[2]
  IC50: < 10 nM

## Cc1nocc1-c1ccc2c(=O)n(Cc3cccc(C(=O)NC(C)C)c3)cnc2c1 [Compound 414]
[1]
  IC50: 101 to 500 nM
[2]
  IC50: 10 to 100 nM

## O=C(NCC1COC1)c1cc(F)cc(Cn2ccc3cc(-c4c[nH]nc4C(F)F)ccc3c2=O)c1 [Compound 59]
[1]
  IC50: 11 to 100 nM
[2]
  IC50: < 10 nM

## O=C(NCc1ccccc1)c1cccc(Cn2cnc3cc(-c4cn[nH]c4C(F)(F)F)ccc3c2=O)c1 [Compound 371]
[1]
  IC50: 101 to 500 nM
[2]
  IC50: 10 to 100 nM

## Cc1nocc1-c1ccc2c(=O)n(C(CN)c3cccc(Cl)c3)cnc2c1 (stereo not drawn) [Compound 497]
[1]
  IC50: 11 to 100 nM
[2]
  IC50: < 10 nM

## CC(=O)Nc1cc(F)cc(Cn2ccc3cc(-c4ccnc(N)c4)ccc3c2=O)c1 [Compound 353]
[1]
  IC50: > 501 nM
[2]
  IC50: 100 to 500 nM

## [2H]C([2H])([2H])NC(=O)c1cccc([C@@H](C)n2cnc3cc(-c4conc4C)ccc3c2=O)c1 [Compound 471]
[1]
  IC50: 11 to 100 nM
[2]
  IC50: < 10 nM

## Cc1[nH]ncc1-c1ccc2c(=O)n(C(CO)c3cccc(Cl)c3)cnc2c1 (stereo not drawn) [Compound 485]
[1]
  IC50: 11 to 100 nM
[2]
  IC50: 10 to 100 nM
